From patent US7511144B2, “Reverse hydroxamic acid derivatives” (Kaken Pharmaceutical Co., Ltd., priority 2001, dated 2009)

Target: T1, TACE (Homo sapiens, UniProt P78536)
T1 construct: made in house; host or cells: mammalian cells or insect cells
Assay: TACE inhibition experiment (in vitro)
Format: biochemical
Conditions: not given

T1 sequence (P78536 215-824): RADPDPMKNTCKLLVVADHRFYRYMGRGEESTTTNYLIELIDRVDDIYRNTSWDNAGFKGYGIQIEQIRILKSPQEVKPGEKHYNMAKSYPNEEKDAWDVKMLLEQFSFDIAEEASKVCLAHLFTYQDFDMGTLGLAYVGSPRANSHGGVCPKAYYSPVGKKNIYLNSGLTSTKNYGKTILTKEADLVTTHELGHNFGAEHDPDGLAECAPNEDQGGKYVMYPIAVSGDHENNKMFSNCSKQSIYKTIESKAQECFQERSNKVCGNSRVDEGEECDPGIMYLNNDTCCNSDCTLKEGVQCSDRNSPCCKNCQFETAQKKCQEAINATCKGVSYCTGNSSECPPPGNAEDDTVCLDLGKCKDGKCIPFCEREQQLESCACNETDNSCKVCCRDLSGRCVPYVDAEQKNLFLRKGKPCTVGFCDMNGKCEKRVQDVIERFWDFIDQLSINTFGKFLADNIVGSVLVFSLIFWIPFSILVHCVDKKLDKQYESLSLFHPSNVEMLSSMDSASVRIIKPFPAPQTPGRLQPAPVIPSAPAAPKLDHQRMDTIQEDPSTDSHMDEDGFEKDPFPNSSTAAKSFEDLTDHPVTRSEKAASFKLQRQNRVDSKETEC

IC50	SMILES
0.4 µM	Cc1cc(C)cc(COc2ccc(S(=O)(=O)CC(C=C3CCC4(CC3)OCCO4)N(O)C=O)cc2)c1 (stereo not shown) [Example I-91]
0.3 µM	Cc1cc(C)cc(COc2ccc(S(=O)(=O)CC(C=C3CCC(=O)CC3)N(O)C=O)cc2)c1 (stereo not shown) [Example I-92]
0.3 µM	COc1cc(C)cc(COc2ccc(S(=O)(=O)CC(CC3CCC4(CC3)OCCO4)N(O)C=O)cc2)c1 (stereo not shown) [Example I-93]
0.08 µM	COc1cc(C)cc(COc2ccc(S(=O)(=O)CC(C=C3CCC(=O)CC3)N(O)C=O)cc2)c1 (stereo not shown) [Example I-94]
1.5 µM	COc1cc(C)cc(COc2ccc(S(=O)(=O)CC(C=C3CCC4(CC3)OCCO4)N(O)C=O)cc2)c1 (stereo not shown) [Example I-95]

Target: T2, Human MMP1 (Homo sapiens, UniProt P03956)
T2 construct: purchased Calbiochem 444208
T2 sequence (P03956 100-469): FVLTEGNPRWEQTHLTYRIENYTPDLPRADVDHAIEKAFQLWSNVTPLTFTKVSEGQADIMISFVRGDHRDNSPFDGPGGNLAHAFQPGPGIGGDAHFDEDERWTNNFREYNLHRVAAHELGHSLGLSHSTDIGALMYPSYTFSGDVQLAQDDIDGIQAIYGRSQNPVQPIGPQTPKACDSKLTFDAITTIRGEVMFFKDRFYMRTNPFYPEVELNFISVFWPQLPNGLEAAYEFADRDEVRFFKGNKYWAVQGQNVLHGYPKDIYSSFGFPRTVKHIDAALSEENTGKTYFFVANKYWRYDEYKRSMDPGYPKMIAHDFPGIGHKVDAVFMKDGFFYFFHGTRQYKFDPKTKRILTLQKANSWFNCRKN
Assay: MMP1 inhibition experiment
Format: biochemical
Conditions: read-out: IC50 value MMP-1

IC50	SMILES
> 100 µM	Cc1cc(C)cc(COc2ccc(S(=O)(=O)CC(C=C3CCC4(CC3)OCCO4)N(O)C=O)cc2)c1 (stereo not shown) [Example I-91]
> 100 µM	Cc1cc(C)cc(COc2ccc(S(=O)(=O)CC(C=C3CCC(=O)CC3)N(O)C=O)cc2)c1 (stereo not shown) [Example I-92]
60 µM	COc1cc(C)cc(COc2ccc(S(=O)(=O)CC(CC3CCC4(CC3)OCCO4)N(O)C=O)cc2)c1 (stereo not shown) [Example I-93]
90 µM	COc1cc(C)cc(COc2ccc(S(=O)(=O)CC(C=C3CCC(=O)CC3)N(O)C=O)cc2)c1 (stereo not shown) [Example I-94]
> 100 µM	COc1cc(C)cc(COc2ccc(S(=O)(=O)CC(C=C3CCC4(CC3)OCCO4)N(O)C=O)cc2)c1 (stereo not shown) [Example I-95]

Target: T3, Human MMP2 (Homo sapiens, UniProt P08253)
T3 construct: purchased Calbiochem 444213
T3 sequence (P08253 110-660): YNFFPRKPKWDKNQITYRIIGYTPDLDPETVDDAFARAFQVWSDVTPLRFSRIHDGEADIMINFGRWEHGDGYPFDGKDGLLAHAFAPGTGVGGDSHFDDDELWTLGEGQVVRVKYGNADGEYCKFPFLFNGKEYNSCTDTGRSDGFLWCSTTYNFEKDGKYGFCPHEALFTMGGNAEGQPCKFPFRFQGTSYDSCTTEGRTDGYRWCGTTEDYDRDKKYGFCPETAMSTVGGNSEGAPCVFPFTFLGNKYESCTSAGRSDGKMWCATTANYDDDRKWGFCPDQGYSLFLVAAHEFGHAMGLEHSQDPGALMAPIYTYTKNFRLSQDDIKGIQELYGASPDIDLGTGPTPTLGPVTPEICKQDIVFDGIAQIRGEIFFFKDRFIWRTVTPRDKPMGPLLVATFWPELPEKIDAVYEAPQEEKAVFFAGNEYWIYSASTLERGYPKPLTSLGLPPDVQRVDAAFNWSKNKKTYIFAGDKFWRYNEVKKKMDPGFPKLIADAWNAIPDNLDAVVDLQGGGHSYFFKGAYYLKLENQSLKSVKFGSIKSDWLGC
Assay: MMP2 inhibition experiment
Format: biochemical
Conditions: concentration required for 50% inhibition of enzyme activity; read-out: IC50 value MMP-2

IC50	SMILES
43 µM	Cc1cc(C)cc(COc2ccc(S(=O)(=O)CC(C=C3CCC4(CC3)OCCO4)N(O)C=O)cc2)c1 (stereo not shown) [Example I-91]
43 µM	Cc1cc(C)cc(COc2ccc(S(=O)(=O)CC(C=C3CCC(=O)CC3)N(O)C=O)cc2)c1 (stereo not shown) [Example I-92]
10 µM	COc1cc(C)cc(COc2ccc(S(=O)(=O)CC(CC3CCC4(CC3)OCCO4)N(O)C=O)cc2)c1 (stereo not shown) [Example I-93]
23 µM	COc1cc(C)cc(COc2ccc(S(=O)(=O)CC(C=C3CCC(=O)CC3)N(O)C=O)cc2)c1 (stereo not shown) [Example I-94]
> 100 µM	COc1cc(C)cc(COc2ccc(S(=O)(=O)CC(C=C3CCC4(CC3)OCCO4)N(O)C=O)cc2)c1 (stereo not shown) [Example I-95]

Target: T4, Human MMP3 (Homo sapiens, UniProt P08254)
T4 construct: purchased Calbiochem 444217
T4 sequence (P08254 100-272 limits assumed): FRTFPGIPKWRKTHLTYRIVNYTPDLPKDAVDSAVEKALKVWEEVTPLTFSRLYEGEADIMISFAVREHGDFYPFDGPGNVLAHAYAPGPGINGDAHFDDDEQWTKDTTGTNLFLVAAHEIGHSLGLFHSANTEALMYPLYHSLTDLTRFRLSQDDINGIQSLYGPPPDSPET
Assay: MMP3 inhibition experiment
Format: biochemical
Conditions: concentration required for 50% inhibition of enzyme activity; read-out: IC50 value MMP-3
Description: (§1) MMP inhibition experiment may be carried out using a fluorescent synthetic substrate according to, for example, the methods of Bickett et al. (D. Mark Bickett et al., Anal. Biochem., 1993, 212, 58-64) and Nagase et al. (H. Nagase et al., J. Biol. Chem., 1994, 269, 20952-20957). The methods of inhibition experiments carried out for various MMPs are described below.
Human MMP3 (Calbiochem #444217) in 90 μL (5 ng) prepared in the assay buffer A was added to 90 μL of 20 μM fluorescent substrate NFF-3(MOCAc-Arg-Pro-Lys-Pro-Val-Glu-Nva-Trp-Arg-Lys(Dnp)-NH2, Peptide Institute, Inc., #3168-v) prepared in the assay buffer B, followed by reaction for 5 hours at 37° C.

IC50	SMILES
35 µM	Cc1cc(C)cc(COc2ccc(S(=O)(=O)CC(C=C3CCC4(CC3)OCCO4)N(O)C=O)cc2)c1 (stereo not shown) [Example I-91]
60 µM	Cc1cc(C)cc(COc2ccc(S(=O)(=O)CC(C=C3CCC(=O)CC3)N(O)C=O)cc2)c1 (stereo not shown) [Example I-92]
15 µM	COc1cc(C)cc(COc2ccc(S(=O)(=O)CC(CC3CCC4(CC3)OCCO4)N(O)C=O)cc2)c1 (stereo not shown) [Example I-93]
21 µM	COc1cc(C)cc(COc2ccc(S(=O)(=O)CC(C=C3CCC(=O)CC3)N(O)C=O)cc2)c1 (stereo not shown) [Example I-94]
> 100 µM	COc1cc(C)cc(COc2ccc(S(=O)(=O)CC(C=C3CCC4(CC3)OCCO4)N(O)C=O)cc2)c1 (stereo not shown) [Example I-95]

Target: T5, Human MMP9 (Homo sapiens, UniProt P14780)
T5 construct: purchased Calbiochem 444231
T5 sequence (P14780 107-707 limits assumed): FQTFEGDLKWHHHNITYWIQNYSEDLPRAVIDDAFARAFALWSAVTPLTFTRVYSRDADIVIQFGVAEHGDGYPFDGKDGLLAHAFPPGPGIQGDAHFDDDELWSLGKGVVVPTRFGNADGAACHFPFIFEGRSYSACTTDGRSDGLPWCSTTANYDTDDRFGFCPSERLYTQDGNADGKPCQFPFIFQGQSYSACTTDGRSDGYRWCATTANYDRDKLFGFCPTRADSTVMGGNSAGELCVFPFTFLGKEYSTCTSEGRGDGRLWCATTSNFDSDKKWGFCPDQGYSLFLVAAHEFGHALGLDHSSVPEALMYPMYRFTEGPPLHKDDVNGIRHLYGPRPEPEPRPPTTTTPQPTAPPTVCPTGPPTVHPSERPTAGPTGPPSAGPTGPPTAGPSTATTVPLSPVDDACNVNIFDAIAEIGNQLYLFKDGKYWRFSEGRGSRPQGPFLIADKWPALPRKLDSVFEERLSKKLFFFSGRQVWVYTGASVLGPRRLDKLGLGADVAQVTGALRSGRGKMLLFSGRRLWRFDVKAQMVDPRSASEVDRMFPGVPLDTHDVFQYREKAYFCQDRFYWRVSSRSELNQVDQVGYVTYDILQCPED
Assay: MMP9 inhibition experiment
Format: biochemical
Conditions: read-out: IC50 value MMP-9

IC50	SMILES
33 µM	Cc1cc(C)cc(COc2ccc(S(=O)(=O)CC(C=C3CCC4(CC3)OCCO4)N(O)C=O)cc2)c1 (stereo not shown) [Example I-91]
60 µM	Cc1cc(C)cc(COc2ccc(S(=O)(=O)CC(C=C3CCC(=O)CC3)N(O)C=O)cc2)c1 (stereo not shown) [Example I-92]
30 µM	COc1cc(C)cc(COc2ccc(S(=O)(=O)CC(CC3CCC4(CC3)OCCO4)N(O)C=O)cc2)c1 (stereo not shown) [Example I-93]
40 µM	COc1cc(C)cc(COc2ccc(S(=O)(=O)CC(C=C3CCC(=O)CC3)N(O)C=O)cc2)c1 (stereo not shown) [Example I-94]
> 100 µM	COc1cc(C)cc(COc2ccc(S(=O)(=O)CC(C=C3CCC4(CC3)OCCO4)N(O)C=O)cc2)c1 (stereo not shown) [Example I-95]

Target: T6, Human MMP13 (Homo sapiens, UniProt P45452)
T6 construct: purchased Chemicon CC068
Assay: MMP13 inhibition experiment
Format: biochemical
Conditions: concentration required for 50% inhibition of enzyme activity; read-out: IC50 value MMP-13

IC50	SMILES
35 µM	Cc1cc(C)cc(COc2ccc(S(=O)(=O)CC(C=C3CCC4(CC3)OCCO4)N(O)C=O)cc2)c1 (stereo not shown) [Example I-91]
35 µM	Cc1cc(C)cc(COc2ccc(S(=O)(=O)CC(C=C3CCC(=O)CC3)N(O)C=O)cc2)c1 (stereo not shown) [Example I-92]
12 µM	COc1cc(C)cc(COc2ccc(S(=O)(=O)CC(CC3CCC4(CC3)OCCO4)N(O)C=O)cc2)c1 (stereo not shown) [Example I-93]
20 µM	COc1cc(C)cc(COc2ccc(S(=O)(=O)CC(C=C3CCC(=O)CC3)N(O)C=O)cc2)c1 (stereo not shown) [Example I-94]
> 100 µM	COc1cc(C)cc(COc2ccc(S(=O)(=O)CC(C=C3CCC4(CC3)OCCO4)N(O)C=O)cc2)c1 (stereo not shown) [Example I-95]

Target: T7, Human MMP14 (Homo sapiens, UniProt P50281)
T7 construct: purchased Biogenesis or Calbiochem 5980-1461 or 475935
Assay: MMP14 inhibition experiment
Format: biochemical
Conditions: concentration required for 50% inhibition of enzyme activity; read-out: IC50 value MMP-14
Description: as §1
Human MMP14 (Biogenesis #5980-1461 or Calbiochem #475935) in amount of 90 μL (4 ng) prepared in the assay buffer A was added to 90 μL of 20 μM fluorescent substrate (Dnp-Pro-Cha-Gly-Cys(Me)-His-Ala-Lys(Nma)-NH2) prepared in the assay buffer B, followed by reaction for 5 hours at 37° C.

IC50	SMILES
40 µM	Cc1cc(C)cc(COc2ccc(S(=O)(=O)CC(C=C3CCC4(CC3)OCCO4)N(O)C=O)cc2)c1 (stereo not shown) [Example I-91]
> 100 µM	Cc1cc(C)cc(COc2ccc(S(=O)(=O)CC(C=C3CCC(=O)CC3)N(O)C=O)cc2)c1 (stereo not shown) [Example I-92]
33 µM	COc1cc(C)cc(COc2ccc(S(=O)(=O)CC(CC3CCC4(CC3)OCCO4)N(O)C=O)cc2)c1 (stereo not shown) [Example I-93]
40 µM	COc1cc(C)cc(COc2ccc(S(=O)(=O)CC(C=C3CCC(=O)CC3)N(O)C=O)cc2)c1 (stereo not shown) [Example I-94]
> 100 µM	COc1cc(C)cc(COc2ccc(S(=O)(=O)CC(C=C3CCC4(CC3)OCCO4)N(O)C=O)cc2)c1 (stereo not shown) [Example I-95]

Target: T8, Human MMP17 (Homo sapiens, UniProt Q9ULZ9)
T8 construct: purchased Calbiochem 475940
T8 sequence (Q9ULZ9 126-300 limits assumed): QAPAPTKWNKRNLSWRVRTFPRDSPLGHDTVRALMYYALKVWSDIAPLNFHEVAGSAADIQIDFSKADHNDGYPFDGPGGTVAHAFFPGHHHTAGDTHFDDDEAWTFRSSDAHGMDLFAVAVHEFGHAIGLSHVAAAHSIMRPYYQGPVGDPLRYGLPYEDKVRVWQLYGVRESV
Assay: MMP17 inhibition test
Format: biochemical
Conditions: concentration required for 50% inhibition of enzyme activity; read-out: IC50 value MMP-17

IC50	SMILES
40 µM	Cc1cc(C)cc(COc2ccc(S(=O)(=O)CC(C=C3CCC4(CC3)OCCO4)N(O)C=O)cc2)c1 (stereo not shown) [Example I-91]
40 µM	Cc1cc(C)cc(COc2ccc(S(=O)(=O)CC(C=C3CCC(=O)CC3)N(O)C=O)cc2)c1 (stereo not shown) [Example I-92]
20 µM	COc1cc(C)cc(COc2ccc(S(=O)(=O)CC(CC3CCC4(CC3)OCCO4)N(O)C=O)cc2)c1 (stereo not shown) [Example I-93]
22 µM	COc1cc(C)cc(COc2ccc(S(=O)(=O)CC(C=C3CCC(=O)CC3)N(O)C=O)cc2)c1 (stereo not shown) [Example I-94]
> 100 µM	COc1cc(C)cc(COc2ccc(S(=O)(=O)CC(C=C3CCC4(CC3)OCCO4)N(O)C=O)cc2)c1 (stereo not shown) [Example I-95]
